pIC50: −log10 of the molar value.
What follows are compounds tested against T1, human TLR8 (Homo sapiens, UniProt Q9NR97) (assay: HEK293-Blue-hTLR-8 cells assay (SEAP reporter, R848 stimulation)). Details: HEK293-Blue-hTLR8 cells, R848 ligand, 20 hrs incubation.
T1 sequence (Q9NR97 27-1041): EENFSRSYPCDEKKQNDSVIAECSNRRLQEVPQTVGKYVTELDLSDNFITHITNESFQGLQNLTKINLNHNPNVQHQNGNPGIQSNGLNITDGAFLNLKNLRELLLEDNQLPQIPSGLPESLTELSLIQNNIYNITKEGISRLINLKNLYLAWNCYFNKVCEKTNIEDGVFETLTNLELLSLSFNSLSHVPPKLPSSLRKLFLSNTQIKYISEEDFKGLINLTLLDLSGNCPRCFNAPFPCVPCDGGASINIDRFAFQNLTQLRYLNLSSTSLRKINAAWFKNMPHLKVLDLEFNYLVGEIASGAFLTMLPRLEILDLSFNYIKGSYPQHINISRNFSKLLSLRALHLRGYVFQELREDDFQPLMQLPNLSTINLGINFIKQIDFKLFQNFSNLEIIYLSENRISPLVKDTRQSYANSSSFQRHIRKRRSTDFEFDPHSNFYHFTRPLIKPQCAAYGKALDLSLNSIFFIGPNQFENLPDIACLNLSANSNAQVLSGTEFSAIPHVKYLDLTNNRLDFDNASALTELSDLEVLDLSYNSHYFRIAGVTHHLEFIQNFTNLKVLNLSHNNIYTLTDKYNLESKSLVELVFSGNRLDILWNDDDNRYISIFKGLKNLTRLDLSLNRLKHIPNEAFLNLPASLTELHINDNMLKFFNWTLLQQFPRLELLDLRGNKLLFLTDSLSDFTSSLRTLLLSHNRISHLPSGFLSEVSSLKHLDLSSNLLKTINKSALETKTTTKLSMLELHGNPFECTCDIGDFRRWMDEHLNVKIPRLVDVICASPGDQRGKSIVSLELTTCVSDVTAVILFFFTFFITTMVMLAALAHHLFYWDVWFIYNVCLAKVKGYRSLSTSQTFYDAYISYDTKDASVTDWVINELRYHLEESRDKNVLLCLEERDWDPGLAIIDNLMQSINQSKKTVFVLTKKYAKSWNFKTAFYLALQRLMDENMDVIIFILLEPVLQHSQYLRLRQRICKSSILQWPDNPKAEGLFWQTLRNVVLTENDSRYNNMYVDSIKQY
Type: cell-based
Experimental: The following tests were carried out in order to determine the activity of the compounds of formula (I) in HEK293-Blue-hTLR-7/8/9 cells assay.
HEK293-Blue-hTLR-8 Cells Assay:
A stable HEK293-Blue-hTLR-8 cell line was purchased from InvivoGen (Cat. #: hkb-htlr8, San Diego, Calif., USA). These cells were originally designed for studying the stimulation of human TLR8 by monitoring the activation of NF-κB. A SEAP (secreted embryonic alkaline phosphatase) reporter gene was placed under the control of the IFN-β minimal promoter fused to five NF-κB and AP-1-binding sites. The SEAP was induced by activating NF-κB and AP-1 via stimulating HEK-Blue hTLR8 cells with TLR8 ligands. Therefore the reporter expression was declined by TLR8 antagonist under the stimulation of a ligand, such as R848, for incubation of 20 hrs. The cell culture supernatant SEAP reporter activity was determined using QUANTI-Blue™ kit (Cat. #: rep-qb1, Invivogen, San Diego, Ca, USA) at a wavelength of 640 nm, a detection medium that turns purple or blue in the presence of alkaline phosphatase.
HEK293-Blue-hTLR8 cells were incubated at a density of 250,000˜450,000 cells/mL in a volume of 170 μL in a 96-well plate in Dulbecco's Modified Eagle's medium (DMEM) containing 4.5 g/L glucose, 50 U/mL penicillin, […], […], 2 mM L-glutamine, 10% (v/v) heat-inactivated fetal bovine serum with addition of 20 μL test compound in a serial dilution in the presence of final DMSO at 1% and 10 μL of 60 uM R848 in above DMEM, perform incubation under 37° C. in a CO2 incubator for 20 hrs. Then 20 μL of the supernatant from each well was incubated with 180 μL Quanti-blue substrate solution at 37° C. for 2 hrs and the absorbance was read at 620-655 nm using a spectrophotometer. The signalling pathway that TLR8 activation leads to downstream NF-κB activation has been widely accepted, and therefore similar reporter assay was modified for evaluating TLR8 antagonist.

| Structure (SMILES) | pIC50 |
| --- | --- |
| N#Cc1ccc(N2CC(CN3CCC4(CCNCC4)CC3)C3(CC3)C2)c2nccnc12 (centres unmarked) [Example 16, 8-[7-(3,9-Diazaspiro[5.5]undecan-3-ylmethyl)-5-azaspiro[2.4]heptan-5-yl]quinoxaline-5-carbonitrile] | 6.88 |
| C[C@H]1CN(c2ccc(C#N)c3nccnc23)C[C@@H]1CN1CCC2(CCNCC2)CC1 [Example 17, 8-[(3S,4R)-3-(3,9-diazaspiro[5.5]undecan-3-ylmethyl)-4-methyl-pyrrolidin-1-yl]quinoxaline-5-carbonitrile] | 7.19 |
| N#Cc1ccc(N2CC(CN3C[C@H]4CNC[C@H]4C3)C3(CC3)C2)c2nccnc12 (stereo partly drawn) [Example 18, 8-[7-[[(3aR,6aS)-2,3,3a,4,6,6a-hexahydro-H-pyrrolo[3,4-c]pyrrol-5-yl]methyl]-5-azaspiro[2.4]heptan-5-yl]quinoxaline-5-carbonitrile] | 7.09 |
| FC(F)(F)c1ccc(N2CC(CN3CCNCC3)C3(CC3)C2)c2nccnc12 (centres unmarked) [Example 20, 5-[7-(Piperazin-1-ylmethyl)-5-azaspiro[2.4]heptan-5-yl]-8-(trifluoromethyl)quinoxaline] | 7.17 |
| N#Cc1ccc(N2CC(CN3CCC4(CCCNC4)C3)C3(CC3)C2)c2nccnc12 (centres unmarked) [Example 22, 8-[7-(2,9-Diazaspiro[4.5]decan-2-ylmethyl)-5-azaspiro[2.4]heptan-5-yl]quinoxaline-5-carbonitrile] | 7.10 |
| C[C@H]1CN(c2ccc(C#N)c3ncccc23)C[C@@H]1CN1CCC2(CCNCC2)CC1 [Example 23, 5-[(3S,4R)-3-(3,9-diazaspiro[5.5]undecan-3-ylmethyl)-4-methyl-pyrrolidin-1-yl]quinoline-8-carbonitrile] | 6.58 |
| N#Cc1ccc(N2CC(CN3CC4(CCCNC4)C3)C3(CC3)C2)c2nccnc12 (centres unmarked) [Example 24, 8-[7-(2,8-Diazaspiro[3.5]nonan-2-ylmethyl)-5-azaspiro[2.4]heptan-5-yl]quinoxaline-5-carbonitrile] | 7.20 |
| N#Cc1ccc(N2CC(CN3C4CCC3CC(N)C4)C3(CC3)C2)c2nccnc12 (centres unmarked) [Example 25, 8-[7-[(3-Amino-8-azabicyclo[3.2.1]octan-8-yl)methyl]-5-azaspiro[2.4]heptan-5-yl]quinoxaline-5-carbonitrile] | 6.97 |
| N#Cc1ccc(N2C[C@H](CN3CCC(N)CC3)[C@@H](C(F)(F)F)C2)c2nccnc12 [Example 26, 8-[(3S,4R)-3-[(4-Amino-1-piperidyl)methyl]-4-(trifluoromethyl)pyrrolidin-1-yl]quinoxaline-5-carbonitrile] | 7.68 |
| C[C@H]1CN(c2ccc(C#N)c3nccnc23)C[C@@H]1CN1CCC2(CCNC2)C1 (stereo partly drawn) [Example 30, 8-[(3S,4R)-3-(2,7-diazaspiro[4.4]nonan-2-ylmethyl)-4-methyl-pyrrolidin-1-yl]quinoxaline-5-carbonitrile] | 7.14 |
| FC(F)(F)c1ccc(N2CC(CN3CCC4(CCNCC4)CC3)C3(CC3)C2)c2nccnc12 (centres unmarked) [Example 31, 3-[[5-[8-(Trifluoromethyl)quinoxalin-5-yl]-5-azaspiro[2.4]heptan-7-yl]methyl]-3,9-diazaspiro[5.5]undecane] | 6.38 |
| N#Cc1ccc(N2CC(CN3CCC4(CCNCC4)C3)C3(CC3)C2)c2nccnc12 (centres unmarked) [Example 32, 8-[7-(2,8-Diazaspiro[4.5]decan-2-ylmethyl)-5-azaspiro[2.4]heptan-5-yl]quinoxaline-5-carbonitrile] | 6.95 |
| C[C@H]1CN(c2ccc(C#N)c3ncccc23)C[C@@H]1CN1CCC2(CCNC2)C1 (stereo partly drawn) [Example 35, 5-[(3S,4R)-3-(2,7-diazaspiro[4.4]nonan-2-ylmethyl)-4-methyl-pyrrolidin-1-yl]quinoline-8-carbonitrile] | 6.61 |
| N#Cc1ccc(N2CCC(CN3CCC4(CCNCC4)CC3)C2)c2nccnc12 (centres unmarked) [Example 37, 8-[3-(3,9-Diazaspiro[5.5]undecan-3-ylmethyl)pyrrolidin-1-yl]quinoxaline-5-carbonitrile] | 6.27 |
| N#Cc1ccc(N2CC(CNC3CCCNCC3)C3(CC3)C2)c2nccnc12 (centres unmarked) [Example 39, 8-[7-[(Azepan-4-ylamino)methyl]-5-azaspiro[2.4]heptan-5-yl]quinoxaline-5-carbonitrile] | 6.88 |
| C[C@@H]1CN(c2ccc(C(F)(F)F)c3nccnc23)C[C@H]1CNC1CCCNCC1 (some centres unmarked) [Example 40] | 6.13 |
| FC(F)(F)c1ccc(N2CC(CN3C[C@H]4CNC[C@H]4C3)C3(CC3)C2)c2nccnc12 (stereo partly drawn) [Example 41, 5-[7-[[(3aR,6aS)-2,3,3a,4,6,6a-hexahydro-H-pyrrolo[3,4-c]pyrrol-5-yl]methyl]-5-azaspiro[2.4]heptan-5-yl]-8-(trifluoromethyl)quinoxaline] | 6.45 |
| N#Cc1ccc(N2CC(CN3CC4(CC(N)C4)C3)C3(CC3)C2)c2nccnc12 (centres unmarked) [Example 42, 8-[7-[(6-Amino-2-azaspiro[3.3]heptan-2-yl)methyl]-5-azaspiro[2.4]heptan-5-yl]quinoxaline-5-carbonitrile] | 6.79 |
| N#Cc1ccc(N2CC(CN3CCC4(CCNC4)C3)C3(CC3)C2)c2cccnc12 (centres unmarked) [Example 43, 5-[7-(2,7-Diazaspiro[4.4]nonan-2-ylmethyl)-5-azaspiro[2.4]heptan-5-yl]quinoline-8-carbonitrile] | 6.14 |
| N#Cc1ccc(N2C[C@H](CN3CCC4(CCCNC4)CC3)[C@@H](C(F)(F)F)C2)c2nccnc12 [Example 45, 8-[(3S,4R)-3-(2,9-diazaspiro[5.5]undecan-9-ylmethyl)-4-(trifluoromethyl)pyrrolidin-1-yl]quinoxaline-5-carbonitrile] | 7.49 |
| N#Cc1ccc(N2C[C@H](CN3CCC4(CCNCC4)C3)[C@@H](C(F)(F)F)C2)c2nccnc12 [Example 46, 8-[(3S,4R)-3-(2,8-diazaspiro[4.5]decan-2-ylmethyl)-4-(trifluoromethyl)pyrrolidin-1-yl]quinoxaline-5-carbonitrile] | 7.17 |
| N#Cc1ccc(N2C[C@H](CN3CC4(CC(N)C4)C3)[C@@H](C(F)(F)F)C2)c2nccnc12 [Example 47, 8-[(3S,4R)-3-[(6-amino-2-azaspiro[3.3]heptan-2-yl)methyl]-4-(trifluoromethyl)pyrrolidin-1-yl]quinoxaline-5-carbonitrile] | 7.13 |
| N#Cc1ccc(N2C[C@H](CN3CC4(CCNCC4)C3)[C@@H](C(F)(F)F)C2)c2nccnc12 [Example 48, 8-[(3S,4R)-3-(2,7-diazaspiro[3.5]nonan-2-ylmethyl)-4-(trifluoromethyl)pyrrolidin-1-yl]quinoxaline-5-carbonitrile] | 7.43 |
| N#Cc1ccc(N2CC(CN3CCC4(CC3)CNCCO4)C3(CC3)C2)c2nccnc12 (centres unmarked) [Example 49, 8-[7-(1-Oxa-4,9-diazaspiro[5.5]undecan-9-ylmethyl)-5-azaspiro[2.4]heptan-5-yl]quinoxaline-5-carbonitrile] | 7.62 |
| N#Cc1ccc(N2CC(CN3CC4CCNCC43)C3(CC3)C2)c2nccnc12 (centres unmarked) [Example 50, 8-[7-(3,8-Diazabicyclo[4.2.0]octan-8-ylmethyl)-5-azaspiro[2.4]heptan-5-yl]quinoxaline-5-carbonitrile] | 7.42 |
| N#Cc1ccc(N2C[C@H](CN3CCC(N)CC3)[C@@H](C(F)(F)F)C2)c2nccnc12 [Example 51, 8-[(3S,4R)-3-[(4-amino-1-piperidyl)methyl]-4-(trifluoromethyl)pyrrolidin-1-yl]quinoxaline-5-carbonitrile] | 7.24 |
